# Laboratory results from PMC6934184, “Selective DNA-PKcs inhibition extends the therapeutic index of localized radiotherapy and chemotherapy” (The Journal of Clinical Investigation, 2019).
# Target: T1, EPHA3 (Homo sapiens, UniProt P29320)
# T1 construct: purchased Thermo Fisher Scientific (Life Technologies) SelectScreen
# Experiment: SelectScreen LanthaScreen
# Type: binding
# Details: read-out: % displacement
# Procedure, shortened: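 Percent values come from Thermo SelectScreen profiling of NU5455, combining activity and binding assays. CSF1R was run in Z'LYTE format at Km app ATP, and CAMK1 in Adapta format with ATP listed at 10.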
# T1 sequence (P29320 21-983): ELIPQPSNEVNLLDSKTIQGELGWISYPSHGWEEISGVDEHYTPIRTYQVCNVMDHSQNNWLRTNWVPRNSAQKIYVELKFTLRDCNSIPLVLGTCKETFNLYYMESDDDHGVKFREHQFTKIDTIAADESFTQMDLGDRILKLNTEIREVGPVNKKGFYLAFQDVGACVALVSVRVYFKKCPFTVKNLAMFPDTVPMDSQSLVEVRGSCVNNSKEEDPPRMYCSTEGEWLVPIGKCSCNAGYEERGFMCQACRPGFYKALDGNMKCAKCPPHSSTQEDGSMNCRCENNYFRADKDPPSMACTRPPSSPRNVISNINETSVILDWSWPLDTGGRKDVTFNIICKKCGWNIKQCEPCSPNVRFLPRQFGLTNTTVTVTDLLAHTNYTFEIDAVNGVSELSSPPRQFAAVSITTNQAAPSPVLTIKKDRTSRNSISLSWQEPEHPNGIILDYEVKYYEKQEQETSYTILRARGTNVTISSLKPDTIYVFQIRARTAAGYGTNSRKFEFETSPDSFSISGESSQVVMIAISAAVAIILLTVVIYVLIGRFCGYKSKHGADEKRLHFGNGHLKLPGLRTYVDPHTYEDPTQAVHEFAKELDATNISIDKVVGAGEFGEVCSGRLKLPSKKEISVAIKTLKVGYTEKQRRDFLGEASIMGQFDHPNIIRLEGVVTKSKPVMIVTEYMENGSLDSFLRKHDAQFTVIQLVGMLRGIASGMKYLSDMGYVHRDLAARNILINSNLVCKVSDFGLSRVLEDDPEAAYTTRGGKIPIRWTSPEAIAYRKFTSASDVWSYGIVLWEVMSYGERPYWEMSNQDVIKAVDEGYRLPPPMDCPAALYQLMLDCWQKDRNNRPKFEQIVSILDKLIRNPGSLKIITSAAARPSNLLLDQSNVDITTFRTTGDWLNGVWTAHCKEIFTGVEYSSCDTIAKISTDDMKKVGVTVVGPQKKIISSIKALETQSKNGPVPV
structure (smiles),measurement,value
CN(C(=O)CN1CCOCC1)c1ccc2sc3c(-c4cccc5c(=O)cc(N6CC7CCC(C6)O7)oc45)cccc3c2c1 [NU5455],inhibition at 1 µM,-0.3%
